Laboratory results: the CheMixHub ionic liquid set

Test: xn = mol fraction of the nth substance listed

OC[C@H]1O[C@H](O[C@H]2[C@H](O)[C@@H](O)C(O)O[C@@H]2CO)[C@H](O)[C@@H](O)[C@@H]1O (some centres undefined) + CCCCCCCCCCCCCCCC[N+](C)(C)C.[Br-] + O
viscosity [mPa·s], 100 kPa
Settings | 298.15 K | 308.15 K | 318.15 K
x2 = 7.13e-06, x1 = 0.002703 | 1.07 | 0.885 | 0.734
x2 = 7.15e-06, x1 = 0.002359 | 1.048 | 0.867 | 0.719
x2 = 7.16e-06, x1 = 0.001637 | 1.002 | 0.829 | 0.688
x2 = 7.16e-06, x1 = 0.001964 | 1.023 | 0.846 | 0.702
x2 = 7.18e-06, x1 = 0.0009633 | 0.958 | 0.793 | 0.659
x2 = 7.18e-06, x1 = 0.001278 | 0.978 | 0.809 | 0.672
x2 = 1.423e-05, x1 = 0.002657 | 1.073 | 0.888 | 0.736
x2 = 1.424e-05, x1 = 0.002424 | 1.058 | 0.875 | 0.726
x2 = 1.428e-05, x1 = 0.001986 | 1.029 | 0.851 | 0.706
x2 = 1.43e-05, x1 = 0.001593 | 1.003 | 0.83 | 0.688
x2 = 1.433e-05, x1 = 0.001228 | 0.979 | 0.81 | 0.672
x2 = 1.435e-05, x1 = 0.0009418 | 0.96 | 0.795 | 0.659
x2 = 2.126e-05, x1 = 0.002693 | 1.08 | 0.894 | 0.74
x2 = 2.128e-05, x1 = 0.002482 | 1.066 | 0.882 | 0.73
x2 = 2.135e-05, x1 = 0.001972 | 1.032 | 0.854 | 0.707
x2 = 2.141e-05, x1 = 0.001636 | 1.01 | 0.835 | 0.692
x2 = 2.143e-05, x1 = 0.001347 | 0.99 | 0.819 | 0.678
x2 = 2.15e-05, x1 = 0.0008556 | 0.957 | 0.792 | 0.656

NCC(=O)O + CCCCCCCCCCCCCCCC[n+]1ccccc1.[Cl-] + O
308.15 K, 101 kPa
Settings | electrical conductivity [S/m]
x1 = 2.018e-05, x2 = 0 | 6.2e-05
x1 = 0.0002, x2 = 0 | 0.000171
x1 = 0.0003639, x2 = 0 | 0.000413
x1 = 0.0009182, x2 = 0 | 0.00011
x1 = 0.001802, x2 = 0 | 0.000292

NC(=O)CC[C@H](N)C(=O)O + CCCCCCCCCCCC[N+](C)(C)C.[Br-] + O
viscosity [mPa·s], 101 kPa
Settings | 293.15 K | 298.15 K | 303.15 K | 308.15 K | 313.15 K
x1 = 0.0001801, x2 = 0.0001083 | 1.02 | 0.908 | 0.822 | 0.738 | 0.667
x1 = 0.0001801, x2 = 0.0001624 | 1.024 | 0.911 | 0.824 | 0.74 | 0.67
x1 = 0.0001801, x2 = 0.0002165 | 1.028 | 0.913 | 0.825 | 0.742 | 0.672
x1 = 0.0001801, x2 = 0.0002706 | 1.036 | 0.914 | 0.827 | 0.744 | 0.674
x1 = 0.0001801, x2 = 0.0003247 | 1.045 | 0.917 | 0.828 | 0.745 | 0.676
x1 = 0.0001801, x2 = 0.0003788 | 1.051 | 0.921 | 0.832 | 0.747 | 0.677
x1 = 0.0001801, x2 = 0.0004328 | 1.057 | 0.926 | 0.835 | 0.749 | 0.68
x1 = 0.0001801, x2 = 0.0004869 | 1.062 | 0.932 | 0.837 | 0.754 | 0.683
x1 = 0.0001801, x2 = 0.000541 | 1.067 | 0.937 | 0.841 | 0.757 | 0.687
x1 = 0.0001802, x2 = 5.413e-05 | 1.018 | 0.905 | 0.819 | 0.735 | 0.666
x1 = 0.0008997, x2 = 0.0005438 | 1.057 | 0.91 | 0.821 | 0.751 | 0.678
x1 = 0.0008998, x2 = 0.0003807 | 1.045 | 0.898 | 0.81 | 0.739 | 0.668
x1 = 0.0008998, x2 = 0.0004351 | 1.051 | 0.902 | 0.814 | 0.743 | 0.67
x1 = 0.0008998, x2 = 0.0004894 | 1.053 | 0.906 | 0.818 | 0.747 | 0.674
x1 = 0.0008999, x2 = 0.000272 | 1.041 | 0.893 | 0.805 | 0.734 | 0.664
x1 = 0.0008999, x2 = 0.0003263 | 1.043 | 0.896 | 0.807 | 0.736 | 0.666
x1 = 0.0009, x2 = 0.0001632 | 1.036 | 0.889 | 0.801 | 0.729 | 0.66
x1 = 0.0009, x2 = 0.0002176 | 1.039 | 0.891 | 0.803 | 0.732 | 0.662
x1 = 0.0009001, x2 = 5.44e-05 | 1.033 | 0.884 | 0.797 | 0.725 | 0.655
x1 = 0.0009001, x2 = 0.0001088 | 1.035 | 0.886 | 0.799 | 0.727 | 0.657
x1 = 0.001798, x2 = 0.0001642 | 1.015 | 0.873 | 0.788 | 0.725 | 0.642
x1 = 0.001798, x2 = 0.000219 | 1.02 | 0.875 | 0.79 | 0.726 | 0.643
x1 = 0.001798, x2 = 0.0002737 | 1.025 | 0.878 | 0.792 | 0.728 | 0.645
x1 = 0.001798, x2 = 0.0003284 | 1.031 | 0.88 | 0.793 | 0.73 | 0.647
x1 = 0.001798, x2 = 0.0003831 | 1.034 | 0.885 | 0.797 | 0.732 | 0.648
x1 = 0.001798, x2 = 0.0004378 | 1.037 | 0.888 | 0.803 | 0.733 | 0.65
x1 = 0.001798, x2 = 0.0004925 | 1.039 | 0.892 | 0.807 | 0.736 | 0.653
x1 = 0.001798, x2 = 0.0005472 | 1.042 | 0.896 | 0.813 | 0.738 | 0.655
x1 = 0.001799, x2 = 5.475e-05 | 1.004 | 0.867 | 0.784 | 0.721 | 0.634
x1 = 0.001799, x2 = 0.0001095 | 1.01 | 0.87 | 0.785 | 0.722 | 0.639

[Cl-].[Na+] + CCCCCCCCCCCC[N+](C)(C)C.[Br-] + O
298.15 K, 101 kPa
Settings | electrical conductivity [S/m]
x2 = 0, x1 = 0.0001802 | 0.1161
x2 = 0, x1 = 0.001799 | 0.8806

NCC(=O)O + CCCCCCCCCCCC[N+](C)(C)Cc1ccccc1.[Cl-] + O
electrical conductivity [S/m], 101 kPa
Settings | 293.15 K | 298.15 K | 303.15 K | 308.15 K | 313.15 K
x1 = 0.0008876, x2 = 0 | 0.000384 | 0.000431 | 0.000492 | 0.000549 | 0.000613
x1 = 0.001759, x2 = 0 | 0.00074 | 0.000839 | 0.000945 | 0.00106 | 0.00118

CCCC[n+]1ccn(C)c1.N#C[S-] + CCCCCCO
101 kPa
Settings | viscosity [mPa·s]
298.15 K, x2 = 0.1505 | 36.2
308.15 K, x2 = 0.1505 | 24.6
308.15 K, x2 = 0.453 | 13.1
308.15 K, x2 = 0.9102 | 4.42
318.15 K, x2 = 0.6307 | 6.91
318.15 K, x2 = 0.9102 | 3.41
328.15 K, x2 = 0.6962 | 4.59
328.15 K, x2 = 0.7583 | 3.92
328.15 K, x2 = 0.8512 | 3.17
338.15 K, x2 = 0.0424 | 12
338.15 K, x2 = 0.3093 | 8.15
338.15 K, x2 = 0.453 | 6.07
338.15 K, x2 = 0.5773 | 4.76
348.15 K, x2 = 0.0424 | 9.56

CCCN + CCCCCC[n+]1ccn(C)c1.F[B-](F)(F)F
298.15 K, 101 kPa
Settings | viscosity [mPa·s]
x1 = 0.1525 | 110
x1 = 0.5052 | 29.08
x1 = 0.9012 | 1.672

CCCC[n+]1ccn(C)c1.N#C[S-] + CCCCCO
101 kPa
Settings | viscosity [mPa·s]
308.15 K, x2 = 0.0193 | 31.1
308.15 K, x2 = 0.1443 | 23.4
318.15 K, x2 = 0.5557 | 7.31
328.15 K, x2 = 0.7302 | 3.71
338.15 K, x2 = 0 | 12.7
338.15 K, x2 = 0.3843 | 6.75
338.15 K, x2 = 0.616 | 4.13
348.15 K, x2 = 0.2751 | 6.6
348.15 K, x2 = 0.3843 | 5.49
348.15 K, x2 = 0.7914 | 2.17
348.15 K, x2 = 0.9135 | 1.5

CCCC[n+]1ccn(C)c1.N#C[S-] + CCCCO
101 kPa
Settings | viscosity [mPa·s]
298.15 K, x2 = 0.5596 | 11.2
298.15 K, x2 = 0.6222 | 9.23
298.15 K, x2 = 0.79 | 5.28
298.15 K, x2 = 0.9738 | 2.9
308.15 K, x2 = 0.6834 | 5.8
318.15 K, x2 = 0.0911 | 19
318.15 K, x2 = 0.5596 | 6.55
318.15 K, x2 = 0.6222 | 5.5
318.15 K, x2 = 0.6834 | 4.59
318.15 K, x2 = 0.9738 | 1.81
328.15 K, x2 = 0.4552 | 6.86
328.15 K, x2 = 0.6834 | 3.72
338.15 K, x2 = 0.5596 | 4.19
338.15 K, x2 = 0.6222 | 3.6
348.15 K, x2 = 0.3317 | 5.78
348.15 K, x2 = 0.8975 | 1.34
348.15 K, x2 = 0.9738 | 1

O=S(=O)([N-]S(=O)(=O)C(F)(F)F)C(F)(F)F.O=S(=O)([N-]S(=O)(=O)C(F)(F)F)C(F)(F)F.[Zn+2] + CCCC[N+]1(C)CCCC1.O=S(=O)([N-]S(=O)(=O)C(F)(F)F)C(F)(F)F
100 kPa, x1 = 0.24
Settings | electrical conductivity [S/m]
356.5 K | 0.306
409.4 K | 1.24

O=S1(=O)CCCC1 + CCCC[N+]1(C)CCCC1.O=S(=O)([N-]S(=O)(=O)C(F)(F)F)C(F)(F)F
101.33 kPa, x2 = 0.5
Settings | viscosity [mPa·s]
303.15 K | 25.8
313.15 K | 18.6
323.15 K | 12.9
333.15 K | 9.7
343.15 K | 8
353.25 K | 6.7
